Test results published in publication PMC7037546, “High Cell Selectivity and Bactericidal Mechanism of Symmetric Peptides Centered on D-Pro–Gly Pairs” (International Journal of Molecular Sciences, 2020).
Converted amounts (≈) assume the structure as drawn. Non-standard residues stand in square brackets, D forms with d. Residues, ends and D or L forms follow the SMILES beside them.

How the values were obtained:
RAW 264.7 cells = experiment: Cytotoxicity, CCK-8 assay; assay type: cell-based, murine; conditions: 64 μM peptide, 16 h, CCK-8, OD 450 nm
Procedure: (§1) The cytotoxicity was detected according to a CCK-8 assay as described previously. Briefly, RAW 264.7 and HEK293T cells were placed into 96-well plates at a density of 1.0–2.0 × 10^5, and then cultured for 16 h under conditions of 5% CO2. Then, two-fold diluted peptides in DMEM were added to the plates. After 16 h of culturing, CCK-8 (10%, v/v) was put into each well containing cell culture, and mixtures were cultured for 2 h. The cytotoxicity assay was examined by measuring the OD of the mixtures at 450 nm (Microplate reader, TECAN GENios F129004, Tecan, Salzburg, Austria). The assays were performed three times.

Gram-negative bacteria = conditions: 16 h
Procedure: (§2) The antimicrobial activity of the designed peptides was examined using the micro-dilution method described previously. The bacteria were cultured for 16 h in MHB at 37 °C, and the microbial suspension was diluted to a final concentration of 10^5 colony-forming units (CFU)/mL. Then, 50 µL of MHB containing different concentrations peptides (0.25–256 µM) was mixed with 50 µL of bacterial solution, and the mixture was added to a 96-well plate. […] The assays were performed three times.

[1] = tested on: Klebsiella pneumonia CMCC46117; conditions: CMCC46117, 16 h
Procedure: as §2

[2] = tested on: Staphylococcus aureus ATCC25923; conditions: ATCC25923, 16 h
Procedure: as §2

S. aureus ATCC29213 = conditions: ATCC29213, 16 h
Procedure: as §2

[3] = tested on: Enterococcus faecalis ATCC29212; conditions: ATCC29212, 16 h
Procedure: as §2

E. coli K88 = conditions: micro-dilution in MHB, 10^5 CFU/mL, 16 h, OD 492 nm, performed three times
Procedure: as §2

[4] = tested on: Salmonella Pullorum NCTC5776; conditions: NCTC5776, 16 h
Procedure: as §2

[5] = tested on: Pseudomonas aeruginosa ATCC27853; conditions: ATCC27853, 16 h
Procedure: as §2

[6] = tested on: methicillin-resistant S. aureus ATCC43300; conditions: ATCC43300, 16 h
Procedure: as §2

E. coli ATCC25922 = assay type: cell-based, Escherichia coli; conditions: for MIC after pH treatment, pH 4 / MIC after pH treatment, pH 6 / MIC after pH treatment, pH 8 / MIC after pH treatment, pH 10: ATCC25922, 1 h; for MIC after temperature treatment, 0 °C / MIC after temperature treatment, 37 °C / MIC after temperature treatment, 100 °C / MIC in the presence of FeCl3 / MIC in the presence of KCl / MIC in the presence of MgCl2 / MIC in the presence of NH4Cl / MIC in the presence of NaCl / MIC in the presence of ZnCl2 / MIC, Control / MIC, Control (pH 7): ATCC25922, 16 h
Procedure: as §2
The salt, temperature, and pH sensitivities of designed peptides were determined by MIC assay as described previously. For the salt sensitivity assay, peptides were diluted in deionized water containing different salts, and mixed with E. coli ATCC25922 (10^5 CFU/mL). The final physiological concentrations of different salts were as follows: 150 mM NaCl, 4.5 mM KCl, 6 μM NH4Cl, 1 mM MgCl2, 8 μM ZnCl2, and 4 μM FeCl3. For temperature sensitivity, peptides were cooled on ice for 10 min, and incubated at 37 °C and 100 °C for 30 min. For pH sensitivity, peptides were treated with different pH for 1 h. Briefly, peptides were diluted in deionized water, and the pH of the solution was adjusted to 4.0, 6.0, 8.0, and 10.0 with HCl or NaOH. The subsequent steps were the same as for the MIC measurements. These tests were performed three times.

Gram-positive bacteria = experiment: Geometric mean of MICs and therapeutic index, Gram (+); assay type: cell-based; conditions: geometric mean over the Gram-positive strains of Table 2; 256 μM used when no activity at 128 μM
Procedure: as §2

[7] = tested on: Escherichia coli ATCC25922; experiment: microbe, parasite or virus in culture; conditions: ATCC25922, 16 h
Procedure: as §2

HEK293T cells = experiment: Cytotoxicity, CCK-8 assay; assay type: cell-based, human; conditions: 64 μM peptide, 16 h, CCK-8, OD 450 nm
Procedure: as §1

SMILES	cell survival rate (RAW 264.7 cells)	GM (geometric mean of MICs), Gram (−) (Gram-negative bacteria)	MIC [1]	MIC [2]	MIC (S. aureus ATCC29213)	MIC [3]	MIC (E. coli K88)	MIC [4]	MIC [5]	MIC [6]	MIC after pH treatment, pH 4 (E. coli ATCC25922)	MIC after pH treatment, pH 6 (E. coli ATCC25922)	MIC after pH treatment, pH 8 (E. coli ATCC25922)	MIC after pH treatment, pH 10 (E. coli ATCC25922)	MIC after temperature treatment, 0 °C (E. coli ATCC25922)	MIC after temperature treatment, 37 °C (E. coli ATCC25922)	MIC after temperature treatment, 100 °C (E. coli ATCC25922)	MIC in the presence of FeCl3 (E. coli ATCC25922)	MIC in the presence of KCl (E. coli ATCC25922)	MIC ([7]; Escherichia coli)	further results
N=C(N)NCCC[C@H](NC(=O)CNC(=O)[C@H]1CCCN1C(=O)[C@H](CCCNC(=N)N)NC(=O)[C@H](CCCNC(=N)N)NC(=O)[C@H](Cc1ccccc1)NC(=O)[C@H](Cc1ccccc1)NC(=O)[C@H](CCCNC(=N)N)NC(=O)[C@H](Cc1ccccc1)NC(=O)[C@@H](N)Cc1ccccc1)C(=O)N[C@@H](CCCNC(=N)N)C(=O)N[C@@H](Cc1ccccc1)C(=O)N[C@@H](Cc1ccccc1)C(=O)N[C@@H](CCCNC(=N)N)C(=O)N[C@@H](Cc1ccccc1)C(=O)N[C@@H](Cc1ccccc1)C(N)=O [FRpG] (H-FFRFFRR[dP]GRRFFRFF-NH2)	78%	13.9 µM	16 µM (≈ 36.6 µg/mL)	16 µM (≈ 36.6 µg/mL)	16 µM (≈ 36.6 µg/mL)	32 µM (≈ 73.1 µg/mL)	8 µM (≈ 18.3 µg/mL)	16 µM (≈ 36.6 µg/mL)	32 µM (≈ 73.1 µg/mL)	32 µM (≈ 73.1 µg/mL)	16 µM	8 µM	8 µM	32 µM	8 µM (≈ 18.3 µg/mL)	8 µM (≈ 18.3 µg/mL)	8 µM (≈ 18.3 µg/mL)	8 µM	8 µM		MIC in the presence of MgCl2 (E. coli ATCC25922): 8 µM; MIC in the presence of NH4Cl (E. coli ATCC25922): 8 µM; MIC in the presence of NaCl (E. coli ATCC25922): 32 µM; MIC in the presence of ZnCl2 (E. coli ATCC25922): 8 µM; MIC, Control (E. coli ATCC25922): 8 µM (≈ 18.3 µg/mL); MIC, Control (pH 7) (E. coli ATCC25922): 8 µM; GM (geometric mean of MICs), Gram (+) (Gram-positive bacteria): 22.6 µM; MIC [7]: 8 µM (≈ 18.3 µg/mL); cell survival rate (HEK293T cells): 85%
CC[C@H](C)[C@H](N)C(=O)N[C@H](C(=O)N[C@@H](CCCNC(=N)N)C(=O)N[C@H](C(=O)N[C@H](C(=O)N[C@@H](CCCNC(=N)N)C(=O)N[C@@H](CCCNC(=N)N)C(=O)N1CCC[C@@H]1C(=O)NCC(=O)N[C@@H](CCCNC(=N)N)C(=O)N[C@@H](CCCNC(=N)N)C(=O)N[C@H](C(=O)N[C@H](C(=O)N[C@@H](CCCNC(=N)N)C(=O)N[C@H](C(=O)N[C@H](C(N)=O)[C@@H](C)CC)[C@@H](C)CC)[C@@H](C)CC)[C@@H](C)CC)[C@@H](C)CC)[C@@H](C)CC)[C@@H](C)CC [IRpG] (H-IIRIIRR[dP]GRRIIRII-NH2)	98%	16 µM	32 µM (≈ 64.4 µg/mL)	>128 µM	>128 µM	>128 µM	16 µM (≈ 32.2 µg/mL)	16 µM (≈ 32.2 µg/mL)	32 µM (≈ 64.4 µg/mL)	>128 µM	16 µM	4 µM	8 µM	16 µM	4 µM (≈ 8.05 µg/mL)	4 µM (≈ 8.05 µg/mL)	4 µM (≈ 8.05 µg/mL)	4 µM	4 µM		MIC in the presence of MgCl2 (E. coli ATCC25922): 8 µM; MIC in the presence of NH4Cl (E. coli ATCC25922): 4 µM; MIC in the presence of NaCl (E. coli ATCC25922): 32 µM; MIC in the presence of ZnCl2 (E. coli ATCC25922): 4 µM; MIC, Control (E. coli ATCC25922): 4 µM (≈ 8.05 µg/mL); MIC, Control (pH 7) (E. coli ATCC25922): 4 µM; GM (geometric mean of MICs), Gram (+) (Gram-positive bacteria): 256 µM; MIC [7]: 4 µM (≈ 8.05 µg/mL); cell survival rate (HEK293T cells): 98%
CC(C)C[C@H](NC(=O)CN)C(=O)N[C@@H](CCCNC(=N)N)C(=O)N[C@@H](CC(C)C)C(=O)N[C@@H](CC(C)C)C(=O)N[C@@H](CCCNC(=N)N)C(=O)N[C@@H](CCCNC(=N)N)C(=O)N[C@@H](CC(C)C)C(=O)N[C@@H](CC(C)C)C(=O)N[C@@H](CCCNC(=N)N)C(=O)N[C@@H](CCCNC(=N)N)C(=O)N[C@@H](CC(C)C)C(=O)N[C@@H](CC(C)C)C(=O)N[C@@H](CCCNC(=N)N)C(=O)N[C@@H](CC(C)C)C(=O)N1CCC[C@@H]1C(N)=O [LRα] (H-GLRLLRRLLRRLLRL[dP]-NH2)	less than 10%	3 µM	4 µM (≈ 8.05 µg/mL)	4 µM (≈ 8.05 µg/mL)	8 µM (≈ 16.1 µg/mL)	16 µM (≈ 32.2 µg/mL)	4 µM (≈ 8.05 µg/mL)	2 µM (≈ 4.03 µg/mL)	4 µM (≈ 8.05 µg/mL)	8 µM (≈ 16.1 µg/mL)	2 µM	2 µM	2 µM	4 µM	2 µM (≈ 4.03 µg/mL)	2 µM (≈ 4.03 µg/mL)	2 µM (≈ 4.03 µg/mL)	2 µM	2 µM		MIC in the presence of MgCl2 (E. coli ATCC25922): 2 µM; MIC in the presence of NH4Cl (E. coli ATCC25922): 2 µM; MIC in the presence of NaCl (E. coli ATCC25922): 8 µM; MIC in the presence of ZnCl2 (E. coli ATCC25922): 2 µM; MIC, Control (E. coli ATCC25922): 2 µM (≈ 4.03 µg/mL); MIC, Control (pH 7) (E. coli ATCC25922): 2 µM; GM (geometric mean of MICs), Gram (+) (Gram-positive bacteria): 8 µM; MIC [7]: 2 µM (≈ 4.03 µg/mL); cell survival rate (HEK293T cells): less than 10%
CO/N=C(\C(=O)N[C@@H]1C(=O)N2C(C(=O)O)=C(COC(C)=O)CS[C@H]12)c1csc(N)n1 [cefotaxime, reference compound]																				2 µM (≈ 0.911 µg/mL)	
O=C(N[C@H](CO)[C@H](O)c1ccc([N+](=O)[O-])cc1)C(Cl)Cl [chloramphenicol, reference compound]																				8 µM (≈ 2.59 µg/mL)	
O=C(O)c1cn(C2CC2)c2cc(N3CCNCC3)c(F)cc2c1=O [ciprofloxacin, reference compound]																				8 µM (≈ 2.65 µg/mL)	
[H]/N=C(/N)N[C@H]1[C@H](O)[C@@H](O)[C@H](O[C@@H]2O[C@@H](C)[C@](O)(C=O)[C@H]2O[C@@H]2O[C@@H](CO)[C@H](O)[C@@H](O)[C@@H]2NC)[C@@H](N/C(N)=N\[H])[C@@H]1O [streptomycin, reference compound]																				2 µM (≈ 1.16 µg/mL)	
